The record followed here is ChEMBL document CHEMBL1139274, “Synthesis and evaluation of electron-rich curcumin analogues” (Bioorg Med Chem, 2009).

One assay concerns SK-BR-3. Kind of assay: Antiproliferative activity against human SKBR3 cells after 72 hrs by MTS-PMS assay. Format: functional, cell-based. Particulars: SK-BR-3, 72 h. For orientation: Tetrazolium assays rely on reduction of a dye to a coloured formazan, in cell work by metabolically active cells.
The next assay deals with MCF7. Kind of assay: Antiproliferative activity against human MCF7 cells after 72 hrs by MTS-PMS assay. Type of assay: functional, cell-based. The conditions noted are these: MCF7, 72 h.

The term IC50 denotes the concentration that inhibits the measured activity by half. Low readings indicate inhibition by little substance, high ones a need for much substance. Turning to `CCOc1ccc(/C=C/c2n[nH]c(/C=C/c3ccc(OCC)c(OC)c3)c2/C=C/C(=O)OC)cc1OC`, the IC50 in the assay with SK-BR-3 was 5.99 µM; with MCF7, 11.4 µM.
For `CCOC(=O)/C=C/C(C(=O)/C=C/c1ccc(OC)c(OC)c1)C(=O)/C=C/c1ccc(OC)c(OC)c1`, in that order: 1.96 µM and 1.28 µM.
For `COC(=O)/C=C/c1c(/C=C/c2ccc(OC)c(OC)c2)n[nH]c1/C=C/c1ccc(OC)c(OC)c1`, in that order: > 100 µM and 49.5 µM.
For `COc1ccc(/C=C/c2n[nH]c(/C=C/c3ccc(OC)c(OC)c3)c2/C=C/C(N)=O)cc1OC`, in that order: 52.6 µM and 39.9 µM.
For the compound `CCOC(=O)CCC(C(=O)/C=C/c1ccc(OC)c(OC)c1)C(=O)/C=C/c1ccc(OC)c(OC)c1`, the IC50 with SK-BR-3 and in the assay with MCF7 was > 100 µM throughout.
As to `CCOC(=O)CCc1c(/C=C/c2ccc(O)c(OC)c2)noc1/C=C/c1ccc(O)c(OC)c1`, the values for the 50% inhibitory concentration (IC50) in the assay on SK-BR-3 and with MCF7 were 13.9 µM and 13.2 µM, respectively.
Consider `COc1ccc(/C=C/c2noc(/C=C/c3ccc(OC)c(OC)c3)c2C)cc1OC`, for which the IC50 amounted to 42.5 µM in the assay on SK-BR-3 and 55.7 µM in the assay on MCF7.
For the compound `COC(=O)/C=C/C(C(=O)/C=C/c1ccc(OC)c(OC)c1)C(=O)/C=C/c1ccc(OC)c(OC)c1`, the results for the IC50 in the assay with SK-BR-3 and in the assay with MCF7 were 0.564 µM and 0.512 µM, respectively.
The corresponding values for `COc1ccc(/C=C/c2cc(/C=C/c3ccc(OC)c(OC)c3)[nH]n2)cc1OC` are 1.58 µM and 12.7 µM.
For `CCOC(=O)CCc1c(/C=C/c2ccc(OC)c(OC)c2)noc1/C=C/c1ccc(OC)c(OC)c1`, in that order: > 100 µM and > 100 µM.
The corresponding values for `COc1cc(/C=C/c2cc(/C=C/c3ccc(O)c(OC)c3)on2)ccc1O` are 4 µM and 1.76 µM.
As for `COc1cc(/C=C/c2cc(/C=C/c3ccc(O)c(OC)c3)[nH]n2)ccc1O` [CURCUMIN PYRAZOLE], the IC50 was determined as 0.258 µM in the assay with SK-BR-3 and 4.19 µM in the assay on MCF7.
For `COc1ccc(/C=C/C(=O)CC(=O)/C=C/c2ccc(OC)c(OC)c2)cc1OC` [TETRAMETHOXYCURCUMIN], in that order: 0.955 µM and 1.07 µM.
For `CCOC(=O)CCc1c(/C=C/c2ccc(OC)c(OC)c2)n[nH]c1/C=C/c1ccc(OC)c(OC)c1`, the figures for the IC50 in the assay on SK-BR-3 and with MCF7 were 11.7 µM and 10.1 µM, respectively.
For `CCOC(=O)CCC(C(=O)/C=C/c1ccc(O)c(OC)c1)C(=O)/C=C/c1ccc(O)c(OC)c1`, in that order: 4.38 µM and 1.96 µM.
For `COc1ccc(/C=C/c2cc(/C=C/c3ccc(OC)c(OC)c3)on2)cc1OC`, in that order: > 100 µM and 59.5 µM.
Take `COc1ccc(/C=C/c2n[nH]c(/C=C/c3ccc(OC)c(OC)c3)c2C)cc1OC`: the IC50 with SK-BR-3 is > 100 µM; with MCF7 it was 8.16 µM.
For `COc1ccc(/C=C/c2n[nH]c(/C=C/c3ccc(OC)c(OC)c3)c2/C=C/CO)cc1OC`, the half-maximal inhibitory concentration (IC50) with SK-BR-3 and with MCF7 was > 100 µM throughout.
As for `COc1ccc(/C=C/C(=O)C(/C=C/CO)C(=O)/C=C/c2ccc(OC)c(OC)c2)cc1OC`, the IC50 in the assay on SK-BR-3 stood at 1.24 µM; in the assay with MCF7, 0.796 µM.
For `COc1ccc(/C=C/C(=O)C(C)C(=O)/C=C/c2ccc(OC)c(OC)c2)cc1OC`, in that order: 1.02 µM and 1.09 µM.
For `COc1ccc(/C=C/C(=O)C(/C=C/C(N)=O)C(=O)/C=C/c2ccc(OC)c(OC)c2)cc1OC`, in that order: 9.83 µM and 5.35 µM.
Consider `CCOC(=O)CCc1c(/C=C/c2ccc(O)c(OC)c2)n[nH]c1/C=C/c1ccc(O)c(OC)c1`, for which the IC50 in the assay on SK-BR-3 is 5.6 µM; with MCF7, 6.01 µM.
For `COc1cc(/C=C/C(=O)CC(=O)/C=C/c2ccc(O)c(OC)c2)ccc1O` [CURCUMIN], in that order: 2.11 µM and 5.58 µM.
